Data on 16 compounds can be found in PubChem BioAssay (NCI).

SMILES strings stand for the structures.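 Compound exposure: 48 hours, 5 concentrations, 96-well plates. The concentration for full growth arrest is given as TGI.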

Common to all, as to experiment: NCI anticancer screen, dose series, 48 h
The subject of test [1] is RXF 393 renal.
Test [2] concerns COLO 205 colon.
Test [3] concerns T-47D breast.
Test [4] deals with MDA-N.
For test [5], the system named is MALME-3M melanoma.
In test [6] the test system is A498 renal.
Test [7] has as its system MOLT-4 leukemia.
Test [8] has as its system UACC-62 melanoma.
Test [9] deals with NCI-H226 lung.
In test [10] the test system is SW-620 colon.
Test [11] concerns NCI-H522 lung.
Test [12] relates to UO-31 renal.
Test [13] deals with SNB-19 CNS.
The test system of test [14] is PC-3 prostate.
The test system of test [15] is ACHN renal.
Test [16] has as its system HS 578T breast.
The test system of test [17] is HCT-116 colon.
Test [18] relates to U251 CNS.
The test system of test [19] is NCI/ADR-RES ovarian.

Take `Cc1ccc2nc3ccccc3c(C3C4C(=O)N(c5ccc(Br)cc5Cl)C(=O)C4ON3C(C(N)=O)c3ccccc3)c2c1` (stereo not given): the TGI was above 25 µM in [1]; above 25 µM in test [2]; above 25 µM in [3]; 23.6 µM in test [4]; above 25 µM in test [5]; above 25 µM in test [6]. For the same compound, the TGI in [7] is above 25 µM; in test [8], above 25 µM; in test [9] it was above 25 µM; in [10], above 25 µM; in test [11], above 25 µM; in test [12], 12.9 µM. The TGI is above 25 µM in test [13]; above 25 µM in [14]; 15.3 µM in test [15]; above 25 µM in [16]; above 25 µM in test [17]; above 25 µM in [18].
For `Cn1c(=O)c2c(nc(NCCCCl)n2CC(=O)NCCCCl)n(C)c1=O`, the TGI in test [1], in [2], in test [3], in [4], in test [6] and in test [7] was above 100 µM in each case. Further, the TGI in test [8], in test [9], in [10], in test [19], in [11] and in [12] was above 100 µM in each case. Further, the TGI in [13], in test [14], in test [15], in test [16], in test [17] and in test [18] was above 100 µM in each case.
With `CC(=O)[C@]1(O)Cc2c(O)c3c(c(O)c2C(OC2OC(C)C(O)C(O)C2F)C1)C(=O)c1ccccc1C3=O` (stereo not given in full), the TGI stood at 1.89 µM in [1]; 3.47 µM in [2]; 7.8 µM in [3]; 2.67 µM in test [4]; 1.48 µM in test [5]; 0.398 µM in test [6]. Also, the TGI stood at 0.0577 µM in test [7]; 0.724 µM in test [8]; 0.341 µM in test [9]; 3.78 µM in test [19]; 2.28 µM in test [11]; 0.0279 µM in test [12]. The TGI was found to be 3.3 µM in test [14], 1.62 µM in test [16], 6.83 µM in test [17] and 0.996 µM in [18].
On to `CCOC(=O)N/N=C(/N)Cc1ccccc1`, for which the TGI in test [1], in [2], in test [3], in test [4], in [5] and in test [6] was above 100 µM in each case. Further, the TGI in [7], in test [8], in test [10], in test [19], in test [11] and in test [12] was above 100 µM throughout. For the same compound, the TGI in [13], in [14], in [15], in test [16] and in [17] was above 100 µM each time.
On to `O=C1NNC(=O)C2C3c4ccccc4C(c4ccccc43)C12` (stereo not given), for which the TGI in test [1], in test [2], in test [3], in test [4], in [5] and in [6] was above 100 µM throughout. Also, the TGI in [7], in test [8], in [9], in [10], in test [19] and in test [12] was above 100 µM throughout. Besides, the TGI in test [13], in test [14], in [15], in test [16], in test [17] and in test [18] was above 100 µM throughout.
With `CCN(CC)Cc1cc(Nc2ccnc3ccc4c(nnn4C)c23)ccc1O`, the TGI was 30.6 µM in test [1]; 32.4 µM in test [2]; 63.5 µM in [3]; 27 µM in [4]; 42.1 µM in test [5]; above 100 µM in test [7]. The TGI in test [8] came out at 30.9 µM; in [19] it was 52.7 µM; in test [11] it was 86 µM; in test [12], 23.6 µM; in [13], 21.3 µM; in test [14], 20.8 µM. In addition, the TGI in test [15] is 8.38 µM; in [16], 42.1 µM; in test [17], 18.2 µM.
Consider `Nc1ccc(C(=O)Nn2c(-c3ccccc3)nc3ccccc3c2=O)cc1`, for which the TGI in test [1], in test [2], in test [3], in [4], in [5] and in test [6] was above 100 µM throughout. In addition, the TGI in test [7], in test [8], in [9], in test [10], in [11] and in test [12] was above 100 µM in each case. The TGI in [13], in test [14], in [15], in test [16], in [17] and in [18] was above 100 µM throughout.
For the compound `CCOC(=O)Cn1sc2ncc([N+](=O)[O-])cc2c1=O`, the TGI is 35.4 µM in test [1]; 25.6 µM in [2]; 37.5 µM in [3]; 24.9 µM in [4]; 33.9 µM in test [5]; above 100 µM in test [6]. Besides, the TGI in test [7] is 9.45 µM; in [8] it was 48.4 µM; in test [9], above 100 µM; in [10], 30.6 µM; in [19], 35.5 µM; in test [11], 39.5 µM. The TGI was 21.8 µM in test [12]; 28 µM in [14]; 29.5 µM in [15]; above 100 µM in test [16]; 31.1 µM in [17].
With `CCOC(=O)NC(Nc1ccc(S(=O)(=O)Nc2ncccn2)cc1)(C(=O)OCC)C(F)(F)F` (stereo not given), the TGI in test [2], in test [3], in test [4], in test [5], in [7] and in test [8] was above 100 µM in each case. The TGI in [9], in test [10], in test [19], in test [11], in test [12] and in [13] was above 100 µM in each case. For the same compound, the TGI in [14], in [15], in test [16], in [17] and in test [18] was above 100 µM each time.
With `COc1ccccc1N1C(=O)/C(=C\c2cccc(Oc3ccccc3)c2)SC1c1ccccc1` (stereo not given), the TGI in [1] was above 100 µM; in test [2], 55 µM; in test [3] it was above 100 µM; in test [4], 64.6 µM; in [5] it was above 100 µM; in test [6] it was above 100 µM. Moreover, the TGI in test [7] was above 100 µM; in test [8], above 100 µM; in [10], 71 µM; in test [19] it was above 100 µM; in test [11] it was above 100 µM; in [12], above 100 µM. Moreover, the TGI in test [13], in test [14], in test [15], in test [16], in test [17] and in test [18] was above 100 µM each time.
Consider `Cc1ccc(S(=O)(=O)OC2C3OC(C)(C)OC3OC2C(c2cc(O)c3c(c2O)C(=O)c2ccccc2C3=O)c2cc(O)c3c(c2O)C(=O)c2ccccc2C3=O)cc1` (stereo not given), for which the TGI in [2], in test [3], in test [4], in test [5], in test [6] and in test [7] was above 10 µM throughout. For the same compound, the TGI in test [8], in [9], in [10], in test [19], in test [11] and in [12] was above 10 µM throughout. The TGI in test [13], in [14], in test [15], in test [16], in test [17] and in test [18] was above 10 µM throughout.
Consider `Nc1nc(Cl)cc(NCC2(CO)COC2)n1`, for which the TGI in test [1], in test [2], in test [3], in test [4], in [5] and in test [6] was above 100 µM each time. For the same compound, the TGI in test [8], in [9], in [10], in test [19], in test [11] and in test [12] was above 100 µM in each case. Moreover, the TGI in [14], in test [15], in test [16], in [17] and in [18] was above 100 µM each time.
Regarding `Cc1nc(N)c(N2CCNCC2)c(=O)[nH]1`, the TGI in test [2], in [3], in [4], in [5], in test [6] and in test [7] was above 100 µM each time. For the same compound, the TGI in test [9], in test [10], in test [19], in test [11], in test [12] and in test [13] was above 100 µM in each case. Further, the TGI in test [14], in test [15], in [16], in test [17] and in [18] was above 100 µM in each case.
In the case of `Clc1cccc(Cl)c1C1SCC2=Nc3ccccc3CN21` (stereo not given), the TGI in [1] was 56.6 µM; in test [2], 27 µM; in test [3], 85.1 µM; in test [4], above 100 µM; in test [6] it was above 100 µM; in test [7], above 100 µM. The TGI was above 100 µM in test [8]; above 100 µM in [10]; 40 µM in test [19]; 43.2 µM in test [12]; 25.8 µM in [13]; 52.4 µM in [14]. Moreover, the TGI in [16] is 62.2 µM; in test [17], 25.7 µM; in test [18], above 100 µM.
Consider `S=C1Cc2c([nH]c3ccccc23)-c2ccccc2N1`, for which the TGI in [1] is 46 µM; in test [2], above 100 µM; in test [3], above 100 µM; in test [4] it was above 100 µM; in test [5] it was above 100 µM; in [7], above 100 µM. Also, the TGI was above 100 µM in test [8]; 89.5 µM in test [9]; above 100 µM in test [10]; above 100 µM in test [19]; 58.9 µM in test [12]; above 100 µM in [13]. Further, the TGI was above 100 µM in [14], 80.6 µM in test [15], above 100 µM in test [16] and above 100 µM in test [17].
For the compound `CC1CN=C(Nc2ccc(S(N)(=O)=O)cc2)S1` (stereo not given), the TGI in test [2] was above 100 µM; in [3] it was above 100 µM; in test [4] it was above 10 µM; in [5], above 100 µM; in test [6], above 100 µM; in test [7] it was above 100 µM. The TGI was above 100 µM in test [10]; above 100 µM in test [19]; above 100 µM in test [12]; above 100 µM in test [13]; above 10 µM in test [14]; above 100 µM in test [15]. Further, the TGI in test [16], in test [17] and in test [18] was above 100 µM throughout.
